The values that follow come from patent publication US20120121591A1 (priority 2009, published 2012).

Type in all cases: cell-based
Experiment [1] has as its target hKv1.3 (Homo sapiens, UniProt P22001). Kind of experiment: cell-based. The settings on record: Kv1.3 (IWQ) IC50 (nM, Avg).
Experiment [2] has as its system IL-2 secretion from T cells in human whole blood. The settings on record: read-out: WB (IL-2) IC50 (nM, Avg).
For experiment [3], the system named is IFN-g secretion from T cells in human whole blood. The settings on record: read-out: WB (IFNg) IC50 (nM, Avg).

Chain of hKv1.3 (P22001 whole entry): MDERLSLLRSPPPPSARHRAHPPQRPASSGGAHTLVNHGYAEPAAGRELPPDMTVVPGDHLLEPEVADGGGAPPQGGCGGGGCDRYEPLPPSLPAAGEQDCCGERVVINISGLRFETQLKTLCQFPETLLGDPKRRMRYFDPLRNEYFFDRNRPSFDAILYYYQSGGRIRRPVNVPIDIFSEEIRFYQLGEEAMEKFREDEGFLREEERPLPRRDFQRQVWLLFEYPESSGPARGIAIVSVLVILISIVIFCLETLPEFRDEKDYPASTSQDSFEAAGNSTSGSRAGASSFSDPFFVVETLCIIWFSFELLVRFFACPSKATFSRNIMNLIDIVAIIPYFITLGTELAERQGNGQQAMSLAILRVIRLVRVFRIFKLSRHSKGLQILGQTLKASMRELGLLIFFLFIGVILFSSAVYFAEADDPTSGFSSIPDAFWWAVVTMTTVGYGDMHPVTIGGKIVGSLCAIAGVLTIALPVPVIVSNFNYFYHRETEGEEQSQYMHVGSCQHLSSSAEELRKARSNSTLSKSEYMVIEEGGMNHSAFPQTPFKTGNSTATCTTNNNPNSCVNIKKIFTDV

Broadly, the IC50 is the concentration that inhibits the measured activity by half. For `CC[C@H](C)[C@@H]1NC(=O)[C@@H](NC(=O)[C@H](CO)NC(=O)[C@@H](N)CCCNC(=N)N)CSSC[C@@H](C(=O)O)NC(=O)[C@H]([C@@H](C)O)NC(=O)CNC(=O)[C@@H]2CSSC[C@@H]3NC(=O)[C@H](CCC(N)=O)NC(=O)[C@H](Cc4ccccc4)NC(=O)[C@H](C)NC(=O)[C@H]([C@@H](C)O)NC(=O)[C@H](CSSC[C@H](NC(=O)[C@H](Cc4ccccc4)NC(=O)[C@H](CO)NC(=O)[C@H](CC(C)C)NC(=O)[C@H](CCCNC(=N)N)NC(=O)[C@H](Cc4ccc(O)cc4)NC(=O)[C@H](CCCCN)NC(=O)[C@H](CCSC)NC(=O)[C@H](CO)NC(=O)[C@H](Cc4c[nH]cn4)NC(=O)[C@H](CCCCN)NC3=O)C(=O)N[C@@H](CCCNC(=N)N)C(=O)N[C@@H](CCCCN)C(=O)N[C@@H]([C@@H](C)O)C(=O)N2)NC(=O)[C@H](CCCNC(=N)N)NC(=O)[C@H](CO)NC(=O)[C@H](CCCCN)NC(=O)[C@@H]2CCCN2C(=O)[C@H](C)NC(=O)[C@H]([C@@H](C)O)NC(=O)[C@H](CC(=O)O)NC1=O` [[Ala7]ShK], the values for the IC50 in experiment [1], in experiment [2] and in experiment [3] were 0.188 nM, 0.886 nM and 2.22 nM, respectively.

For the compound `CC[C@H](C)[C@@H]1NC(=O)[C@@H](NC(=O)[C@H](CO)NC(=O)[C@@H](N)CCCNC(=N)N)CSSC[C@@H](C(=O)O)NC(=O)[C@H]([C@@H](C)O)NC(=O)CNC(=O)[C@@H]2CSSC[C@@H]3NC(=O)[C@H](CCC(N)=O)NC(=O)[C@H](Cc4ccccc4)NC(=O)[C@H](C)NC(=O)[C@H]([C@@H](C)O)NC(=O)[C@H](CSSC[C@H](NC(=O)[C@H](Cc4ccccc4)NC(=O)[C@H](CO)NC(=O)[C@H](CC(C)C)NC(=O)[C@H](CCCNC(=N)N)NC(=O)[C@H](Cc4ccc(O)cc4)NC(=O)[C@H](CCCCN)NC(=O)[C@H](CCSC)NC(=O)[C@H](CO)NC(=O)[C@H](Cc4c[nH]cn4)NC(=O)[C@H](CCCCN)NC3=O)C(=O)N[C@@H](CCCNC(=N)N)C(=O)N[C@@H](CCCCN)C(=O)N[C@@H]([C@@H](C)O)C(=O)N2)NC(=O)[C@H](CCCNC(=N)N)NC(=O)[C@H](CO)NC(=O)[C@H](CCCCN)NC(=O)[C@H](C)NC(=O)[C@H]([C@@H](C)CC)NC(=O)[C@H]([C@@H](C)O)NC(=O)[C@H](CC(=O)O)NC1=O` [[Ala8]ShK], the results for the IC50 in experiment [1], in experiment [2] and in experiment [3] were 0.078 nM, 0.039 nM and 0.061 nM, respectively.

On to `CC[C@H](C)[C@@H]1NC(=O)[C@@H](NC(=O)[C@H](CO)NC(=O)[C@@H](N)CCCNC(=N)N)CSSC[C@@H](C(=O)O)NC(=O)[C@H]([C@@H](C)O)NC(=O)CNC(=O)[C@@H]2CSSC[C@@H]3NC(=O)[C@H](CCC(N)=O)NC(=O)[C@H](Cc4ccccc4)NC(=O)[C@H](C)NC(=O)[C@H]([C@@H](C)O)NC(=O)[C@H](CSSC[C@H](NC(=O)[C@H](Cc4ccccc4)NC(=O)[C@H](CO)NC(=O)[C@H](CC(C)C)NC(=O)[C@H](CCCNC(=N)N)NC(=O)[C@H](Cc4ccc(O)cc4)NC(=O)[C@H](CCCCN)NC(=O)[C@H](CCSC)NC(=O)[C@H](CO)NC(=O)[C@H](Cc4c[nH]cn4)NC(=O)[C@H](CCCCN)NC3=O)C(=O)N[C@@H](CCCNC(=N)N)C(=O)N[C@@H](CCCCN)C(=O)N[C@@H]([C@@H](C)O)C(=O)N2)NC(=O)[C@H](CCCNC(=N)N)NC(=O)[C@H](CO)NC(=O)[C@H](C)NC(=O)[C@@H]2CCCN2C(=O)[C@H]([C@@H](C)CC)NC(=O)[C@H]([C@@H](C)O)NC(=O)[C@H](CC(=O)O)NC1=O` [[Ala9]ShK], for which the half-maximal inhibitory concentration (IC50) in experiment [1] was determined as 0.116 nM; in experiment [2], 0.053 nM; in experiment [3], 0.103 nM.

`CCCC[C@@H]1NC(=O)[C@H](CO)NC(=O)[C@H](Cc2c[nH]cn2)NC(=O)[C@H](CCCCN)NC(=O)[C@@H]2CSSC[C@@H]3NC(=O)[C@H]([C@@H](C)O)NC(=O)[C@H](CCCNC(=N)N)NC(=O)[C@H](CCCNC(=N)N)NC(=O)[C@H](CSSC[C@H](NC(=O)[C@H](CCCNC(=N)N)NC(=O)[C@H](CO)NC(=O)[C@H](CCCCN)NC(=O)[C@@H]4CCCN4C(=O)[C@H]([C@@H](C)CC)NC(=O)[C@H]([C@@H](C)O)NC(=O)[C@H](CC(=O)O)NC(=O)[C@H]([C@@H](C)CC)NC(=O)[C@@H](NC(=O)[C@H](CO)NC(=O)[C@@H](N)CCCNC(=N)N)CSSC[C@@H](C(N)=O)NC(=O)[C@H]([C@@H](C)O)NC(=O)CNC3=O)C(=O)N[C@@H]([C@@H](C)O)C(=O)N[C@@H](C)C(=O)N[C@@H](C)C(=O)N[C@@H](CCCCN)C(=O)N2)NC(=O)[C@H](Cc2ccccc2)NC(=O)[C@H](CO)NC(=O)[C@H](CC(C)C)NC(=O)[C@H](CCCNC(=N)N)NC(=O)[C@H](Cc2ccc(O)cc2)NC(=O)[C@H](CCCCN)NC1=O` [[Ala15, Lys16, Nle21,Arg30]ShK-amide]: the IC50 in experiment [1] was 0.329 nM; in experiment [2], 1.35 nM; in experiment [3] it was 1.71 nM.

Consider `CCCC[C@@H]1NC(=O)[C@H](CO)NC(=O)[C@H](Cc2c[nH]cn2)NC(=O)[C@H](CCCCN)NC(=O)[C@@H]2CSSC[C@@H]3NC(=O)[C@H]([C@@H](C)O)NC(=O)[C@H](CCCCN)NC(=O)[C@H](CCCNC(=N)N)NC(=O)[C@H](CSSC[C@H](NC(=O)[C@H](CCCNC(=N)N)NC(=O)[C@H](CO)NC(=O)[C@H](CCCCN)NC(=O)[C@@H]4CCCN4C(=O)[C@H]([C@@H](C)CC)NC(=O)[C@H]([C@@H](C)O)NC(=O)[C@H](CC(=O)O)NC(=O)[C@H]([C@@H](C)CC)NC(=O)[C@@H](NC(=O)[C@H](CO)NC(=O)[C@@H](N)CCCNC(=N)N)CSSC[C@@H](C(N)=O)NC(=O)[C@H]([C@@H](C)O)NC(=O)CNC3=O)C(=O)N[C@@H]([C@@H](C)O)C(=O)N[C@@H](C)C(=O)N[C@@H](C)C(=O)N[C@@H](CCCCN)C(=O)N2)NC(=O)[C@H](Cc2ccccc2)NC(=O)[C@H](CO)NC(=O)[C@H](CC(C)C)NC(=O)[C@H](CCCNC(=N)N)NC(=O)[C@H](Cc2ccc(O)cc2)NC(=O)[C@H](CCCCN)NC1=O` [[Ala15, Lys16,Nle21]ShK-amide], for which the IC50 in experiment [1] stood at 0.127 nM; in experiment [2] it was 0.952 nM; in experiment [3] it was 1.87 nM.

`CC[C@H](C)[C@@H]1NC(=O)[C@@H](NC(=O)[C@H](CO)NC(=O)[C@@H](N)CCCNC(=N)N)CSSC[C@@H](C(=O)O)NC(=O)[C@H]([C@@H](C)O)NC(=O)CNC(=O)[C@@H]2CSSC[C@@H]3NC(=O)[C@H](CCCCN)NC(=O)[C@H](C)NC(=O)[C@H](C)NC(=O)[C@H]([C@@H](C)O)NC(=O)[C@H](CSSC[C@H](NC(=O)[C@H](Cc4ccccc4)NC(=O)[C@H](CO)NC(=O)[C@H](CC(C)C)NC(=O)[C@H](CCCNC(=N)N)NC(=O)[C@H](Cc4ccc(O)cc4)NC(=O)[C@H](CCCCN)NC(=O)[C@H](CCSC)NC(=O)[C@H](CO)NC(=O)[C@H](Cc4c[nH]cn4)NC(=O)[C@H](CCCCN)NC3=O)C(=O)N[C@@H](CCCNC(=N)N)C(=O)N[C@@H](CCCCN)C(=O)N[C@@H]([C@@H](C)O)C(=O)N2)NC(=O)[C@H](CCCNC(=N)N)NC(=O)[C@H](CO)NC(=O)[C@H](CCCCN)NC(=O)[C@@H]2CCCN2C(=O)[C@H]([C@@H](C)CC)NC(=O)[C@H]([C@@H](C)O)NC(=O)[C@H](CC(=O)O)NC1=O` [[Ala15, Lys16]ShK]: the half-inhibitory concentration (IC50) stood at 0.96 nM in experiment [1], 0.057 nM in experiment [2] and 0.052 nM in experiment [3].

Take `CC[C@H](C)[C@@H]1NC(=O)[C@@H](NC(=O)[C@H](CO)NC(=O)[C@@H](N)CCCNC(=N)N)CSSC[C@@H](C(N)=O)NC(=O)[C@H]([C@@H](C)O)NC(=O)CNC(=O)[C@@H]2CSSC[C@@H]3NC(=O)[C@H](CCCCN)NC(=O)[C@H](C)NC(=O)[C@H](C)NC(=O)[C@H]([C@@H](C)O)NC(=O)[C@H](CSSC[C@H](NC(=O)[C@H](Cc4ccccc4)NC(=O)[C@H](CO)NC(=O)[C@H](CC(C)C)NC(=O)[C@H](CCCNC(=N)N)NC(=O)[C@H](Cc4ccc(O)cc4)NC(=O)[C@H](CCCCN)NC(=O)[C@H](CCSC)NC(=O)[C@H](CO)NC(=O)[C@H](Cc4c[nH]cn4)NC(=O)[C@H](CCCCN)NC3=O)C(=O)N[C@@H](CCCNC(=N)N)C(=O)N[C@@H](CCCCN)C(=O)N[C@@H]([C@@H](C)O)C(=O)N2)NC(=O)[C@H](CCCNC(=N)N)NC(=O)[C@H](CO)NC(=O)[C@H](CCCCN)NC(=O)[C@@H]2CCCN2C(=O)[C@H]([C@@H](C)CC)NC(=O)[C@H]([C@@H](C)O)NC(=O)[C@H](CC(=O)O)NC1=O` [[Ala15,Lys16]ShK-amide]: the IC50 stood at 0.091 nM in experiment [1], 0.167 nM in experiment [2] and 0.193 nM in experiment [3].

Take `CC[C@H](C)[C@@H]1NC(=O)[C@@H](NC(=O)[C@H](CO)NC(=O)[C@@H](N)CCCNC(=N)N)CSSC[C@@H](C(=O)O)NC(=O)[C@H]([C@@H](C)O)NC(=O)CNC(=O)[C@@H]2CSSC[C@@H]3NC(=O)[C@H](CCC(N)=O)NC(=O)[C@H](Cc4ccccc4)NC(=O)[C@H](C)NC(=O)[C@H]([C@@H](C)O)NC(=O)[C@H](CSSC[C@H](NC(=O)[C@H](Cc4ccccc4)NC(=O)[C@H](CO)NC(=O)[C@H](CC(C)C)NC(=O)[C@H](CCCNC(=N)N)NC(=O)[C@H](Cc4ccc(O)cc4)NC(=O)[C@H](CCCCN)NC(=O)[C@H](CCSC)NC(=O)[C@H](CO)NC(=O)[C@H](C)NC(=O)[C@H](CCCCN)NC3=O)C(=O)N[C@@H](CCCNC(=N)N)C(=O)N[C@@H](CCCCN)C(=O)N[C@@H]([C@@H](C)O)C(=O)N2)NC(=O)[C@H](CCCNC(=N)N)NC(=O)[C@H](CO)NC(=O)[C@H](CCCCN)NC(=O)[C@@H]2CCCN2C(=O)[C@H]([C@@H](C)CC)NC(=O)[C@H]([C@@H](C)O)NC(=O)[C@H](CC(=O)O)NC1=O` [[Ala19]ShK]: the concentration for half-maximal inhibition (IC50) in experiment [1] turned out to be 0.237 nM; in experiment [2], 0.379 nM; in experiment [3], 0.472 nM.
